Data: patent US10345292B2, “Mammalian cell lines expressing functional nematode acetylcholine receptors and use thereof for high-throughput screening assays” (priority 2014, dated 2019)
Read-outs that look alike come from different tables or passages of the source.

Assays:
[1] = biological target: T1, Hco ACR-16/hRIC3 cell line (Haemonchus contortus, UniProt A9Y2C3); experiment: Ca2+ measurement in 384-well plate format on FDSS6000 (Fluo-4AM); type: cell-based
T1 sequence (A9Y2C3 1-494): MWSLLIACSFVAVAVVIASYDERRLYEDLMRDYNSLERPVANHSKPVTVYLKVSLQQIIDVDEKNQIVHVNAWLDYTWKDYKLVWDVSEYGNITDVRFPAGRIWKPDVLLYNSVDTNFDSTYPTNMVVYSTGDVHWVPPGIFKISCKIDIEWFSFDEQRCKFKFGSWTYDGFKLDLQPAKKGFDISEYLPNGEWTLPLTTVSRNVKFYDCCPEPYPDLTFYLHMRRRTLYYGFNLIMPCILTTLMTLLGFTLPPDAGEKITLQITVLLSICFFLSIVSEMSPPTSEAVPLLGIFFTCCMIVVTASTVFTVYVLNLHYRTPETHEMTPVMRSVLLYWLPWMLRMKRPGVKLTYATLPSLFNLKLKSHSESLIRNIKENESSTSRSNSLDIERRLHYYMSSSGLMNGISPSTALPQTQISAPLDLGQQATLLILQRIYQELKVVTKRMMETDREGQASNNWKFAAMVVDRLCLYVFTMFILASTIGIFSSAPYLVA
T1 sequence (Q7Z5B4 29-369 partner): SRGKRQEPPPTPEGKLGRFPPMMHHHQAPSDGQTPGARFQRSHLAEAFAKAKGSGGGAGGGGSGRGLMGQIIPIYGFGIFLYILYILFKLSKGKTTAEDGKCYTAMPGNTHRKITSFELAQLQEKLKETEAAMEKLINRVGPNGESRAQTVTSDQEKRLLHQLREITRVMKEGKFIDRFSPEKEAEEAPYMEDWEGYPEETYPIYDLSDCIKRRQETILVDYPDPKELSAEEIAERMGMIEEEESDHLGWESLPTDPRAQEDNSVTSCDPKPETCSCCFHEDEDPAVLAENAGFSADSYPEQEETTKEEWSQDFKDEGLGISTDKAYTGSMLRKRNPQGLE

[2] = system: Hco ACR-16/hRIC3 stable cell line (Flp-In-293-Hco ACR-16 hRic3); type: cell-based, Haemonchus contortus; design: AUC, Mean / AUC, Median: unit not given beside the values
[3] = biological target: T2, Hco ACR-16/Hco RIC3 stable cell line (Haemonchus contortus, UniProt A9Y2C3); experiment: Ca2+ measurement in 384-well plate format on FDSS6000 (Fluo-4AM); type: cell-based
T2 sequence (A9Y2C3 1-494): T1 sequence (A9Y2C3 1-494)

[4] = system: Dim ACR-16/Dim RIC3 stable cell line; experiment: as above; type: cell-based, Dirofilaria immitis

CC(=O)OCC[N+](C)(C)C [Acetylcholine]
EC50 [1]: 480 nM

Clc1ccc(C2CC3CCC2N3)cn1 (stereo not drawn) [Epibatidine]
AUC, Mean [2]: 271.25 | AUC, Median [2]: 253.67 | Ratio, Mean [2]: 2.51 | Ratio, Median [2]: 2.15 | Rmax, Mean [2]: 2.62 | Rmax, Median [2]: 2.34 | Rmin, Mean [2]: 1.02 | Rmin, Median [2]: 1.04 | EC50 [3]: 5 nM | Signal amplitude with 10 μM PNU120596 + 300 nM epibatidine application ([3]; 24 h @ 37° C.): 680 RFU | Signal amplitude with 10 μM PNU120596 + 300 nM epibatidine application ([3]; 24 h @ 37° C. + 24 h @ 30° C.): 1601 RFU | Signal amplitude with 10 μM PNU120596 + 300 nM epibatidine application [4]: 450 RFU | EC50 ([4]; read-out: EC50 (FIG. 10, FIG. 11)): 10 nM | EC50 ([4]; read-out: EC50 value): 5 nM | EC50 [1]: 6 nM | Signal amplitude with 10 μM PNU120596 + 300 nM epibatidine application ([1]; 24 h @ 37° C.): 1503 RFU | Signal amplitude with 10 μM PNU120596 + 300 nM epibatidine application ([1]; 24 h @ 37° C. + 24 h @ 30° C.): 2160 RFU

CN1CCCC1c1cccnc1 (stereo not drawn) [Nicotine]
EC50 ([4]; read-out: EC50 (FIG. 10, FIG. 11), orthosteric reference agonist, concentration response curve): 350 nM | EC50 ([4]; read-out: EC50 value, Revealed by co-application of PNU-120956): 400 nM | EC50 [1]: 200 nM

COc1cc(OC)c(NC(=O)Nc2cc(C)on2)cc1Cl [PNU-120956]
EC50 ([3]; Revealed by co-application of EC100 orthosteric reference agonist, read-out: EC50 value): 1400 nM | EC50 ([4]; allosteric modulator response curve, read-out: EC50 (FIG. 12)): 2400 nM | EC50 ([1]; four-parameter logistic fit, cell line not named in legend, read-out: XC50 from concentration-response curve (FIG. 8)): 160 nM
